Results on 1 compound are retold here after patent publication US5681836A, “Methanesulfonate salts of antipsychotic benzofuran derivatives” (Merck, Sharp & Dohme, Ltd., priority 1995, dated 1997).

Where a name gives a salt, the structure may show the parent alone.

This assay concerns the target T1, human dopamine D4 receptor subtype (Homo sapiens, UniProt P21917).
T1 sequence (P21917 1-419): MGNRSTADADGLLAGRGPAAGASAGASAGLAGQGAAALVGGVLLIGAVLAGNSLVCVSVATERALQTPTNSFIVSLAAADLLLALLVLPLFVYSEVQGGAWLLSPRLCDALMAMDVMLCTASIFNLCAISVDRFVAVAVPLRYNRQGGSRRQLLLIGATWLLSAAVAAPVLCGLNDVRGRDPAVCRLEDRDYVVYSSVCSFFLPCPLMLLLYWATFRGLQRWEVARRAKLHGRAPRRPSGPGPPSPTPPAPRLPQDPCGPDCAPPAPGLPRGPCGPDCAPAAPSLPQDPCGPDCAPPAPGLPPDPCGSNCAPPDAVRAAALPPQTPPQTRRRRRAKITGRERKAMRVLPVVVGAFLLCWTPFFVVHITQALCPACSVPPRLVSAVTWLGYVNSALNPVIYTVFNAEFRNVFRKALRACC
The experiment in a line: [3H]-Spiperone binding (displacement) studies, human dopamine D4 receptor subtype expressed in clonal cell lines. To be noted: 0.2 nM [3H]-spiperone for displacement; 60 min, room temperature (22° C.), pH 7.4; membranes of clonal cell lines; read-out: Ki value for displacement of [3H]-spiperone from the human dopamine D4 receptor subtype. As for the experimental part:
Moreover, these salts display a selective affinity for the D4 subtype relative to the D2 subtype.
Clonal cell lines expressing the human dopamine D4 receptor subtype were harvested in PBS and then lysed in 10 mM Tris-HCl pH 7.4 buffer containing 5 mM MgSO4 for 20 min on ice. Membranes were centrifuged at 50,000 g for 15 min at 4° C. and the resulting pellets resuspended in assay buffer (50 mM Tris-HCl pH 7.4 containing 5 mM EDTA, 1.5 mM CaCl2, 5 mM MgCl2, 5 mM KCl, 120 mM NaCl, and 0.1% ascorbic acid) at 20 mg/ml wet weight. Incubations were carried out for 60 min at room temperature (22° C.) in the presence of 0.05-2 nM [^3 H]-spiperone or 0.2 nM for displacement studies and were initiated by addition of 20-100 μg protein in a final assay volume of 0.5 ml. The incubation was terminated by rapid filtration over GF/B filters presoaked in 0.3% PEI and washed with 10 ml ice-cold 50 mM Tris-HCl, pH 7.4. Specific binding was determined by 10 μM apomorphine and radioactivity determined by counting in a LKB beta counter. Binding parameters were determined by non-linear least squares regression analysis, from which the inhibition constant Ki could be calculated for each test compound.

Regarding `C1=C(/C=C/c2ccccc2)CCN(Cc2coc3ccccc23)C1` [Example 1, (E)-3-[4-(2-Phenylethenyl)-1,2,3,6-tetrahydropyridin-1-yl]methylbenzo[b]furan methanesulfonate salt], the Ki is less than 1500 nM.
